Reference: patent US20260191874A1, “FUSED AMINO PYRIMIDINE COMPOUNDS FOR TREATMENT OF AUTISM SPECTRUM DISORDER, OBSESSIVE COMPULSIVE DISORDER AND TICS” (Ovid Therapeutics Inc., priority 2024, published 2026)

Key:
hippocampus = experiment: Neuronal cell death in the hippocampus of mice treated with diazepam; format: in vivo; conditions: Compound A and diazepam, compared to diazepam alone
KCC2-S940A = biological target: T1, KCC2-S940A (Homo sapiens, UniProt Q9H2X9, S963A); experiment: Tl+ flux assay in HEK-293 cells expressing KCC2-S940A; format: cell-based
T1 construct: expressed in transfected cells; host or cells: HEK-293
T1 sequence (Q9H2X9 1-1116 isoform Q9H2X9-2 S940A): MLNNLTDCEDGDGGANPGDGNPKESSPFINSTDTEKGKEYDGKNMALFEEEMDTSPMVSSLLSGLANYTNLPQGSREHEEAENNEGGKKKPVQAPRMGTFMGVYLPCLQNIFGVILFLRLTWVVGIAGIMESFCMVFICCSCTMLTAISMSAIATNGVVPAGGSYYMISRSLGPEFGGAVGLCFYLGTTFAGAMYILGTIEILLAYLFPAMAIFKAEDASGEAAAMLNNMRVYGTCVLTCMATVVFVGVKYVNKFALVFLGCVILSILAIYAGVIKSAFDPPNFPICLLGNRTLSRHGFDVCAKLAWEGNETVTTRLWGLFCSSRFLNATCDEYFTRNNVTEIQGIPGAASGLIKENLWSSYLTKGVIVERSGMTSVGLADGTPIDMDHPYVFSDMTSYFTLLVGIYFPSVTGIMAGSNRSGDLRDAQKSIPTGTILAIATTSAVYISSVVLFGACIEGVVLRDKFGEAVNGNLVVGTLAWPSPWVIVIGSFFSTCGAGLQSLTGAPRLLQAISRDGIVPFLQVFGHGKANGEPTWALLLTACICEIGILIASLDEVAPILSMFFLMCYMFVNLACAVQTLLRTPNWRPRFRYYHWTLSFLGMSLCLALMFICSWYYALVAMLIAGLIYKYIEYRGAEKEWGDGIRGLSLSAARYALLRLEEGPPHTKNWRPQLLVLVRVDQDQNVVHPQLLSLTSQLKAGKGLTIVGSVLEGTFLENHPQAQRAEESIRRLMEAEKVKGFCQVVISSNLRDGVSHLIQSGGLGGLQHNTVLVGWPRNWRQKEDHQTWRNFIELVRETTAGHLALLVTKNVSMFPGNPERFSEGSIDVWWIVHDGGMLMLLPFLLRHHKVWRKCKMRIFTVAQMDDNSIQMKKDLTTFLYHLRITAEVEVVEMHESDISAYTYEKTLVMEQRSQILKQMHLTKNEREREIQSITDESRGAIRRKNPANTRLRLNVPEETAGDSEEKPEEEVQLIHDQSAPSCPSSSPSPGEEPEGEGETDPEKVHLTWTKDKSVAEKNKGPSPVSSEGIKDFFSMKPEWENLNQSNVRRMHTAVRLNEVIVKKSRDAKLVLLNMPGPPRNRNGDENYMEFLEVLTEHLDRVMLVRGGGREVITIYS
Method: (§1) FLIPR TI Flux assay. HEK-293 cells were washed with HBSS, and then incubated with loading buffer containing TI sensitive fluorescent dye (https://www.moleculardevices.com), 20 μM bumetanide 20 μM ouabain and 2.5 mM probenecid for 1 h at room temperature (RT) under control conditions or with drugs in the dark using a FlexStation 3 microplate reader (Molecular Devices) and imaged […] for 30 min. Stimulus buffer was added containing 5 mM K^+/0.5 mM Tl^+ and cells were imaged every 1.5 over a 190 second time course The initial rate Tl^+ uptake (Relative Fluorescence Units (RFU) per second) was determined following addition of the stimulus buffer as outlined previously (Conway et al., 2017, supra) (Lee et al., 2022, supra).
(§2) Several studies have shown that the activity and plasma membrane accumulation of KCC2 is potentiated via phosphorylation of S940, a process mediated by the activity of protein kinase C and protein phosphatase 1 (Lee et al., 2011, supra; Lee et al., J Biol Chem 282, 29777-29784 (2007); Moore et al., Proc. Natl. Acad. Sci. U.S.A 115, 10166-10171 (2018); Moore et al., Trends Neurosci. 40, 555-571 (2017); Silayeva et al., Proc. Natl. Acad. Sci. U.S.A 112, 3523-3528 (2015)). […] Compared to KCC2, effects on KCC3, KCC4, and NKCC1 were only seen at concentrations more than 35-fold that of KCC2 (≥100 μM) (FIG. 1G).

NKCC1 = biological target: T2, NKCC1 (Homo sapiens, UniProt P55011); experiment: Tl+ flux assay in HEK-293 cells expressing NKCC1; format: cell-based; conditions: read-out: concentration at which effects on NKCC1 were seen (EC50 chart, FIG. 1G)
T2 construct: expressed in transfected cells; host or cells: HEK-293
T2 sequence (P55011 1-1212): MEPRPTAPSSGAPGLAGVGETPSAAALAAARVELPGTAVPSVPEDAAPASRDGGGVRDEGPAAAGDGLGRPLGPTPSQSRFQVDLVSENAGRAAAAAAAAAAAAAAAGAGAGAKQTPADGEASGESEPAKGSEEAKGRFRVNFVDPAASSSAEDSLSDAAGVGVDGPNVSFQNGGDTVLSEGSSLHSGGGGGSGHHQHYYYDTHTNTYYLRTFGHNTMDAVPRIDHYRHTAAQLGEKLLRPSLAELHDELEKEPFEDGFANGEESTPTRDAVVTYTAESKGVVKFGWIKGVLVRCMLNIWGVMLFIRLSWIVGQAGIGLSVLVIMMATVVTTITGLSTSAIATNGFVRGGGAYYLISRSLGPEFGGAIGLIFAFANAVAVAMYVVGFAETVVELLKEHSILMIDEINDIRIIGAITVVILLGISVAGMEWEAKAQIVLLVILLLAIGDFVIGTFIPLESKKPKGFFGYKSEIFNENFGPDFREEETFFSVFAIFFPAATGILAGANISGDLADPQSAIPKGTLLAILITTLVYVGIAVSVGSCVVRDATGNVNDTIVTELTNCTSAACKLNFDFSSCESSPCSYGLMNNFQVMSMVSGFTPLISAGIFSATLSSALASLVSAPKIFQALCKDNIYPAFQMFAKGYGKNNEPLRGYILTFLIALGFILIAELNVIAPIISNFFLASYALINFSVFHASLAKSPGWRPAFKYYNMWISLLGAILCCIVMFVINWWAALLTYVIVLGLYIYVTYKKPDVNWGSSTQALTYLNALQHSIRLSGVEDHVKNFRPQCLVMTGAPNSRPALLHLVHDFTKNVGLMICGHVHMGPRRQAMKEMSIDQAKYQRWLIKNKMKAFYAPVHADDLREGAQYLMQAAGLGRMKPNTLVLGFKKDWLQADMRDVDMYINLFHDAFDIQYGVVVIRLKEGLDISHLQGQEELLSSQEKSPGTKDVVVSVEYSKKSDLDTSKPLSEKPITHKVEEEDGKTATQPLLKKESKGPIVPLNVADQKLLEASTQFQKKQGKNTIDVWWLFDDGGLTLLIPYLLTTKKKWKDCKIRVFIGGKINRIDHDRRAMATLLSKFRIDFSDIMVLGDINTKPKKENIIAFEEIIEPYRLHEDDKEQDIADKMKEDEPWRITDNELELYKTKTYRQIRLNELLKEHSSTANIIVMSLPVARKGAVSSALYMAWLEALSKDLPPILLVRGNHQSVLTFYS
Method: as §1, §2

## C[C@@H]1CN(c2nc3c(c(Nc4ccc(C5CCCCC5)cc4)n2)COC3)CCO1 [Compound A, (R)—N-(4-cyclohexylphenyl)-2-(2-methylmorpholino)-5,7-dihydrofuro[3,4-d]pyrimidin-4-amine]
hippocampus
  neuronal cell death in the hippocampus: significantly reduced
KCC2-S940A
  activity of KCC2-S940A construct: increased the activity
NKCC1
  EC50: ≥ 100 µM
